Experimental data from patent publication US9012431B2, “Boron-containing small molecules as anti-inflammatory agents” (Anacor Pharmaceuticals, Inc., priority 2008, dated 2015).
Like-named read-outs stand apart in the source and are kept apart here.

Experiments:
TNF-α = experiment: Cytokine assay, TNF-α release from PBMC; format: cell-based; conditions: Homo sapiens, PBMC, 24 h, 1 μg/mL LPS, supernatant at 24 hours
In short: (§1)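 Cryopreserved human PBMC were thawed and resuspended in RPMI 1640 with 10% FBS. Test compounds, diluted from 10 mM DMSO stocks, were applied in triplicate at 10, 1, 0.1 and 0.01 μM, and cytokine release was measured.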

IL-2 = experiment: Cytokine assay, IL-2 release from PBMC; format: cell-based; conditions: human PBMC, 20 ug/mL PHA, supernatant at 24 hours
In short: as §1

IFN-γ = experiment: Cytokine assay, IFN-γ release from PBMC; format: cell-based; conditions: human PBMC, 20 ug/mL PHA, supernatant at 24 hours
In short: as §1

IL-5 = experiment: Cytokine assay, IL-5 release from PBMC; format: cell-based; conditions: human PBMC, 20 ug/mL PHA, supernatant at 48 hours
In short: as §1

[1] = tested on: T1, PDE4 partially purified from human U-937 myeloid leukemia cells; experiment: PDE4 Assay (enzyme from U-937 cells, [3H]cAMP); format: biochemical; conditions: PDE4 from U-937 cells, Tris buffer pH 7.5, 20 minutes at 25° C.
T1 construct: PDE4 partially purified from human U-937 myeloid leukemia cells was used

[2] = tested on: CD-1 (Crl.) derived male mice; experiment: Phorbol Ester Induced Mouse Ear Edema Model; format: in vivo; conditions: topical, 6 h, 1 mg/ear × 2 topical, vehicle not given, ear swelling 6 hours after PMA
In short: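 Test compounds in acetone:ethanol 1:1 were applied topically to both ears 30 min before and 15 min after PMA challenge; dexamethasone positive control followed the same schedule. Ear thickness was measured by micrometer 6 h after PMA, and percent inhibition was calculated from ear-thickness increase versus vehicle controls.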

hERG-channel = hERG-channel (Homo sapiens, UniProt Q12809); experiment: hERG-channel block; format: biochemical; conditions: C17 at 1 μM
female CBA/J mice = experiment: Local lymph node assay (hypersensitivity response); format: in vivo
[3] = tested on: TNF-α secretion from peripheral blood mononuclear cells (PBMCs); experiment: TNF-α secretion from PBMCs stimulated by LPS; format: cell-based, human; conditions: PBMC
From the text: (§2) Compounds were screened by a biochemical assay against PDE4 enzyme and cell-based cytokine release assays using PBMCs stimulated by LPS or phytohemagglutinin (PHA).

[4] = tested on: IL-1β production by human PBMCs; experiment: IL-1β production by LPS- or PHA-stimulated PBMCs; format: cell-based
[5] = tested on: IL-6 production by human PBMCs; experiment: IL-6 production by LPS- or PHA-stimulated PBMCs; format: cell-based
[6] = tested on: IL-2 secretion from PBMCs; experiment: IL-2 secretion from PBMCs stimulated with PHA; format: cell-based, human; conditions: PBMC
From the text: as §2

[7] = tested on: IFN-γ secretion from PBMCs; experiment: IFN-γ secretion from PBMCs stimulated with PHA; format: cell-based, human; conditions: PBMC
From the text: as §2

[8] = tested on: IL-23 production from human THP-1 macrophages; experiment: IL-23 production by THP-1 cells stimulated with IFN-g and LPS; format: cell-based
[9] = tested on: phosphodiesterase 4 (PDE4) enzyme derived from human U937 cells; experiment: PDE4 enzyme activity (enzyme derived from human U937 cells); format: biochemical; conditions: versus substrate cAMP
From the text: (§3) The structure-activity relationships of novel boron-containing anti-inflammatory agents was investigated.
as §2

[10] = tested on: T2, phosphodiesterase 4 (PDE4) enzyme derived from human U937 cells; experiment: as above; format: biochemical
T2 construct: PDE4 IC50; other: biochemical assay, PDE4 enzyme derived from human U937 cells; other: PDE4 in human U937 cells
From the text: as §3, §2

all four PDE4 isoforms = experiment: PDE4 isoform inhibition; format: biochemical
PDE7A1 = biological target: T3, PDE7A1 (Homo sapiens, UniProt Q13946); experiment: PDE7 inhibition; format: biochemical
T3 construct: made in house; host or cells: baculoviral expression system

PDE1A3 = biological target: T4, PDE1A3 (Homo sapiens, UniProt P54750); experiment: PDE1 inhibition; format: biochemical
T4 construct: made in house; host or cells: baculoviral expression system

PDE2 = biological target: T5, PDE2 (Homo sapiens, UniProt O00408); experiment: PDE2 inhibition; format: biochemical
T5 construct: made in house; host or cells: baculoviral expression system

PDE4Cat = tested on: T6, PDE4Cat; experiment: PDE4Cat inhibition; format: biochemical; conditions: standard: Rolipram
T6 construct: Recombinant human PDE enzymes were expressed in a baculoviral system.

[11] = tested on: TNF-α, IFN-γ, IL-1μ, IL-2, IL-4, IL-5, IL-6, IL-8, IL-10, IL-12, and IL-23; experiment: Release of pro-inflammatory cytokines (summary statement); format: cell-based
From the text: This activity is explained in part by the inhibition of phosphodiesterase-4 (PDE-4).

Sprague-Dawley rats = conditions: oral 30, 100, and 300 mg/kg/day, 14 consecutive days

T3 sequence (Q13946 whole entry): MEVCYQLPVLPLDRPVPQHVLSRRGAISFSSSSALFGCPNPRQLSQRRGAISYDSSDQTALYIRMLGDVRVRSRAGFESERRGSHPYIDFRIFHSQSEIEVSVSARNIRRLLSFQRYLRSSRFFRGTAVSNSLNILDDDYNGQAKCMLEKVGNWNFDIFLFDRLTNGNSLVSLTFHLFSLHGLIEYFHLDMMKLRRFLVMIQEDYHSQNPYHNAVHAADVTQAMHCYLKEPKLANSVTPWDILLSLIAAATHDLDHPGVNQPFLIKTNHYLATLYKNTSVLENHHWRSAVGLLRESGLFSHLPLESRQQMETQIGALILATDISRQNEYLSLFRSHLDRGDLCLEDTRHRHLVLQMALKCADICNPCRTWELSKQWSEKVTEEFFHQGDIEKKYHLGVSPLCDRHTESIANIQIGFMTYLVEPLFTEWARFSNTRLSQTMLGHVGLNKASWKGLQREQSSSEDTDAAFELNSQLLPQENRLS
T4 sequence (P54750 whole entry): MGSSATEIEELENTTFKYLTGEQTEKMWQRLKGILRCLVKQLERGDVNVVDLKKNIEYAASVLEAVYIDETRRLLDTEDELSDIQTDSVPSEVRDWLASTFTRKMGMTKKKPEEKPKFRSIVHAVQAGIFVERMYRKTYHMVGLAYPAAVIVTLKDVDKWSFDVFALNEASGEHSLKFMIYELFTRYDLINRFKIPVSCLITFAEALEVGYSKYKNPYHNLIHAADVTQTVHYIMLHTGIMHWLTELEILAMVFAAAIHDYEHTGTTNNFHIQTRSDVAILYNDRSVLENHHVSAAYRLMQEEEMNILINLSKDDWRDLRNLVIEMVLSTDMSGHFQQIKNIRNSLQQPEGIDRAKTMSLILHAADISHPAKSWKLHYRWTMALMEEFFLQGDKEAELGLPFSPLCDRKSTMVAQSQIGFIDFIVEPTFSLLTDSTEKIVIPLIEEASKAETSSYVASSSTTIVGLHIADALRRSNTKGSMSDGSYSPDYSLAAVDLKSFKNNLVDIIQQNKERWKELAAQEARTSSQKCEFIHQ
Sequence of hERG-channel (Q12809 whole entry): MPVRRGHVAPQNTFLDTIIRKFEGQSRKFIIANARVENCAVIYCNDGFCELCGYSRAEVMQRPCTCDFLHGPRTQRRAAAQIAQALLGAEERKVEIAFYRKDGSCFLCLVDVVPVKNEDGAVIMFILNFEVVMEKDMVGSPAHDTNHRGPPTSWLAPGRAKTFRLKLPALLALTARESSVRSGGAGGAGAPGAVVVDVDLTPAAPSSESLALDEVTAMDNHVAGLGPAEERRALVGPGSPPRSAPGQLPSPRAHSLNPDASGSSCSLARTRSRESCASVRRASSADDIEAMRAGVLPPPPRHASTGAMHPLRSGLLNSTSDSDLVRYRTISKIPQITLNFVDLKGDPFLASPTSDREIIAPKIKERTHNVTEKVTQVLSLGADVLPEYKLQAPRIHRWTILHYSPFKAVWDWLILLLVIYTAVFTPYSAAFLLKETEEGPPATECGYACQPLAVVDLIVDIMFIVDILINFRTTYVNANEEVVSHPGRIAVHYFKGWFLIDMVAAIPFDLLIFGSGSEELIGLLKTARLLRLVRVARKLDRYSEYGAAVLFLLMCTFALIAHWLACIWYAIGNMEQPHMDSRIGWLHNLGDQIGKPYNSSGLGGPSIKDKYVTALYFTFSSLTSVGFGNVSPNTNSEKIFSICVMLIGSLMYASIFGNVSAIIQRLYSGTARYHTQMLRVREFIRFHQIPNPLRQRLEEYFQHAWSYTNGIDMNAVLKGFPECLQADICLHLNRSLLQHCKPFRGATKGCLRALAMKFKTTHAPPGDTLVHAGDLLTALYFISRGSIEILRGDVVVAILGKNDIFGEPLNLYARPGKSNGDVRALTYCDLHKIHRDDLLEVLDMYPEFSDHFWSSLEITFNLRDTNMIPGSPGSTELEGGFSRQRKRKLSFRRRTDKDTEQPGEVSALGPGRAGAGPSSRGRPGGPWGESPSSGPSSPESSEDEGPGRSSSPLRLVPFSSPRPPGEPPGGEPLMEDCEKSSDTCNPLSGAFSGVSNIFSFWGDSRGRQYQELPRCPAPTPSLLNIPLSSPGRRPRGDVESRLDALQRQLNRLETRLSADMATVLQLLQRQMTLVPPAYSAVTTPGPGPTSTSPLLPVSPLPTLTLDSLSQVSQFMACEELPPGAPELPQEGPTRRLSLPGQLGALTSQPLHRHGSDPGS
T5 sequence (O00408 whole entry): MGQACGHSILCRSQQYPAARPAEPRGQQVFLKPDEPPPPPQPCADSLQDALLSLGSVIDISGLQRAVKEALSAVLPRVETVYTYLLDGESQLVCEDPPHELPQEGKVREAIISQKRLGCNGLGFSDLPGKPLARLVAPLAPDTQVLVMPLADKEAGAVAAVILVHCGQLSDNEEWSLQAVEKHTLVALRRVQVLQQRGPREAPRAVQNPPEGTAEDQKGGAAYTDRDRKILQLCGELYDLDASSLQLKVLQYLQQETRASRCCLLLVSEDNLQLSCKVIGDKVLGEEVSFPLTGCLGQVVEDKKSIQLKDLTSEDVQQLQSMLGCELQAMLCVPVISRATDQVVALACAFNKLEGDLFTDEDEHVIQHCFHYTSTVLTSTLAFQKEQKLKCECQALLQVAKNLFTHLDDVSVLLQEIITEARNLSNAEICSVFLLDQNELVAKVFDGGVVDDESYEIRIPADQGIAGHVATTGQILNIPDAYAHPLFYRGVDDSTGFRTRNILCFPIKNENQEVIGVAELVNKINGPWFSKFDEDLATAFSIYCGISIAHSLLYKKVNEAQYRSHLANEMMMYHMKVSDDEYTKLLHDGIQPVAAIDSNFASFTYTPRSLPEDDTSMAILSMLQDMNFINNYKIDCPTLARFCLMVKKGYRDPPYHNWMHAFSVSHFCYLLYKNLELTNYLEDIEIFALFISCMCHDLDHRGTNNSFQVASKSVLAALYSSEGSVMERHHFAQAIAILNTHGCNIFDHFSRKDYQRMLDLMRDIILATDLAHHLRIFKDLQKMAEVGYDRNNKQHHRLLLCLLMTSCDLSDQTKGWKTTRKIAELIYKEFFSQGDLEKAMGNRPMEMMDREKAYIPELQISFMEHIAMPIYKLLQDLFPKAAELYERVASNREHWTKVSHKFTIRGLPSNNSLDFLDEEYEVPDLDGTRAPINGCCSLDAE

## N#Cc1ccc(Oc2ccc3c(c2)COB3O)cc1 [C17, 5-(4-cyanophenoxy)-1-hydroxy-1,3-dihydro-2,1-benzoxaborole]
TNF-α
  IC50: < 1000 nM
IL-2
  IC50: < 1000 nM
IFN-γ
  IC50: < 1000 nM
IL-5
  IC50: 1000 to 4000 nM
[1]
  IC50: < 1000 nM
[2]
  inhibition in vivo at 1 mg: 60 to 90%
hERG-channel
  hERG-channel blocker classification: low potency hERG-channel blocker
Female CBA/J mice; mouse, in vivo
  skin sensitizing activity: not considered to have skin sensitizing activity
Female CBA/J mice; topical 1%, 5%, and 10% solution in acetone/ethanol (50:50, v/v)
  stimulation index: < 3
[3]; Homo sapiens, PBMCs stimulated by LPS, read-out: TNF-α secretion IC50
  IC50: 770 nM
[3]; LPS- and PHA-induced cytokine production by human PBMCs, read-out: IC50 TNFα (pro-inflammatory cytokines)
  IC50: < 1000 nM
[4]; PBMC, LPS- and PHA-induced cytokine production by human PBMCs, read-out: IC50 IL-1β (pro-inflammatory cytokines)
  IC50: > 30000 nM
[4]; PBMCs
  effect on IL-1: not affected
[5]; PBMC, LPS- and PHA-induced cytokine production by human PBMCs, read-out: IC50 IL-6 (pro-inflammatory cytokines)
  IC50: > 30000 nM
[5]; PBMCs
  effect on IL-6: not affected
[6]; Homo sapiens, PBMCs stimulated with PHA, read-out: IL-2 secretion IC50
  IC50: 460 nM
[6]; LPS- and PHA-induced cytokine production by human PBMCs, read-out: IC50 IL-2 (Th1 cytokines)
  IC50: < 1000 nM
[7]; Homo sapiens, PBMCs stimulated with PHA, read-out: IFN-γ secretion IC50
  IC50: 270 nM
[7]; LPS- and PHA-induced cytokine production by human PBMCs, read-out: IC50 IFNg (Th1 cytokines)
  IC50: < 1000 nM
[8]; human THP-1 macrophages, read-out: IL-23 production IC50
  IC50: 2250 nM
[8]; human THP-1 monocytic cells stimulated with IFN-g and LPS, read-out: IC50 IL-23*
  IC50: 1000 to 10000 nM
[9]
  mode of inhibition (enzyme kinetic analysis): competitive inhibitor
[10]; PDE4 in human U937 cells, read-out: PDE4 enzyme activity IC50
  IC50: 490 nM
[10]; biochemical assay, PDE4 enzyme derived from human U937 cells, read-out: PDE4 IC50
  IC50: 490 nM
All four PDE4 isoforms
  inhibition of PDE4 isoforms: inhibiting all four PDE4 isoforms equally
PDE7A1; read-out: PDE7 IC50
  IC50: 730 nM
PDE7A1; standard: BRL-50481, read-out: IC50 PDE7A1
  IC50: < 1000 nM
PDE1A3
  inhibition of PDE1: does not significantly inhibit
PDE1A3; standard: 8-methoxymethyl-IBMX
  IC50: 1000 to 10000 nM
PDE2
  inhibition of PDE2: does not significantly inhibit
PDE4Cat
  IC50: < 1000 nM
[11]
  release of pro-inflammatory cytokines including TNF-α, IFN-γ, IL-1μ, IL-2, IL-4, IL-5, IL-6, IL-8, IL-10, IL-12, and IL-23: inhibition of the release
Sprague-Dawley rats
  mortality, clinical pathology, microscopic or macroscopic changes: No mortality, adverse effects on clinical pathology, or microscopic or macroscopic changes were observed in any dose group
